Assay results reported in patent publication US11643413B2, “9-(2-oxacycloalkyl)-9H-purine-2,6-diamine derivatives and their use for the treatment of skin disorders” (UNIVERZITA PALACKEHO V OLOMOUCI, priority 2017, dated 2023).
Read-outs that look alike come from different tables or passages of the source.

Tests used:
B10A.4 [1] = system: B10A.4
Description: (§1) One of the parameters used, as the basis for cytotoxicity assays, is the metabolic activity of viable cells. For example, a microtiter assay, which uses the Calcein AM, is now widely used to quantitate cell proliferation and cytotoxicity. […] Because only metabolically active cells cleave Calcein AM, these assays detect viable cells exclusively. The quantity of reduced Calcein AM corresponds to the number of vital cells in the culture.
(§2) Mouse fibroblasts NIH3T3; mouse immortalized bone marrow macrophages B2.4 and B10A.4, and BJ (human foreskin fibroblasts) were used for routine screening of compounds. The cells were maintained in Nunc/Corning 80 cm^2 plastic tissue culture flasks and cultured in cell culture medium (DMEM with 5 g/l glucose, 2 mM glutamine, 100 U/ml penicillin, 100 μg/ml streptomycin, 10% fetal calf serum and sodium bicarbonate).
(§3) The cell suspensions that were prepared and diluted according to the particular cell type and the expected target cell density (2.500-30.000 cells per well based on cell growth characteristics) were added by pipette (80 μl) into 96/well microtiter plates. Inoculates were allowed a pre-incubation period of 24 hours at 37° C. and 5% CO2 for stabilisation. Four-fold dilutions of the intended test concentration were added at time zero in 20 μl aliquots to the microtiter plate wells. Usually, the compound tested was evaluated at six 4-fold dilutions. […] All compound concentrations were examined in duplicates. Incubations of cells with the tested compounds lasted for 72 hours at 37° C., in 5% CO2 atmosphere and 100% humidity. At the end of the incubation period, the cells were assayed by using Calcein AM. Ten microliters of the stock solution were pipetted into each well and incubated for 1 hour. Fluorescence (FD) was measured with the Labsystem FIA Reader Fluoroscan Ascent (UK).

[2] = system: BJ (human foreskin fibroblasts)
Description: as §1, §2, §3

B10A.4 [3] = system: B10A.4; remark: listed apart in the source
Description: as §1, §2, §3

NIH-3T3 [4] = system: NIH-3T3
Description: as §1, §2, §3

NIH-3T3 [5] = experiment: Calcein AM cytotoxicity, NIH-3T3; details: read-out: Cytotoxicity IC50, NIH-3T3; 72 hours incubation, Calcein AM; highest concentration […]
Description: as §1, §2, §3

B10A.4 [6] = experiment: Calcein AM cytotoxicity, B10A.4 (second column); details: read-out: Cytotoxicity IC50, B10A.4, 72 hours incubation, highest concentration […]
Description: as §1, §2, §3

NIH3T3 fibroblasts = experiment: Peroxidation of membrane lipids, MDA by TBA method; assay type: cell-based, mouse; details: FW = fresh weight
Procedure: A typical symptom associated with aging is the direct consequence of increased concentrations of reactive oxygen species and lipid peroxidation. […] MDA levels were measured using thiobarbituric acid (TBA method). […] The crude extract was centrifuged at 10,000×g for 5 minutes and 100 μl aliquots of the supernatant were mixed with 100 μl of 0.5% (w/v) TBA containing 0.1% (w/v) trichloroacetic acid. The resulting solution was then incubated for 30 min at 95° C. The samples were rapidly cooled on ice and centrifuged for 5 minutes at 1000×g. […] The newly prepared derivatives of the general formula thus have a protective function against the negative effects of reactive oxygen species that accumulate strongly in the tissues.

[7] = system: BJ (human foreskin fibroblasts); experiment: Calcein AM cytotoxicity, BJ; details: read-out: Cytotoxicity IC50, BJ; 72 hours incubation, Calcein AM; highest concentration […]
Description: as §1, §2, §3

B10A.4 [8] = experiment: Calcein AM cytotoxicity, B10A.4 (first column); details: read-out: Cytotoxicity IC50, B10A.4; 72 hours incubation, Calcein AM; highest concentration […]
Description: as §1, §2, §3

[9] = Calcein AM cytotoxicity, NIH-3T3; details: mouse, NIH-3T3 fibroblasts
Description: as §1, §2, §3

[10] = Radical scavenging activity determined by ORAC; details: relative to trolox; Mean ± SD (n = 3)
Procedure: The ability of compounds to scavenge free radicals in vitro was determined by Oxygen Radical Absorbance Capacity (ORAC) method. In brief, fluorescein (100 μl, […]) and 25 μl of compound solution were added into each working well in a 96-well microplate preincubated at 37° C. Thereafter, 25 μL of 250 mM AAPH was quickly added, microplate was shaken for 5 s and the fluorescence (Ex. 485 nm, Em. 510 nm) was read every 3 min over 90 min by using microplate reader Infinite 200 (TECAN, Switzerland). The net area under the curve was used to express antioxidant activity relative to trolox which was used as a standard.

[11] = Calcein AM cytotoxicity, BJ; details: human, BJ foreskin fibroblasts
Description: as §1, §2, §3

[12] = Calcein AM cytotoxicity, B10A.4 (first column); details: mouse, B10A.4 immortalized bone marrow macrophages
Description: as §1, §2, §3

For `Nc1ncnc2nc[nH]c12` [Adenine, reference compound], the IC50 (B10A.4 [1]; mouse, 72 h) was > 167 µM, the IC50 ([2]; human, 72 h) was > 167 µM and the IC50 (B10A.4 [3]; mouse, 72 h) was > 167 µM. The IC50 (NIH-3T3 [4]; mouse, 72 h) was > 167 µM.
With `CC(C)=CCNc1nc(N(C)C)nc2c1ncn2C1CCO1` (stereo not drawn) [Compound 13] the IC50 (NIH-3T3 [5]) was > 167 µM, the IC50 (B10A.4 [6]) was > 167 µM and the MDA (NIH3T3 fibroblasts) was 13.1 nmol/g FW. For the same compound, the IC50 [7] was > 167 µM and the IC50 (B10A.4 [8]) was > 167 µM.
With `CCN(CC)c1nc(NCC=C(C)C)c2ncn(C3CCO3)c2n1` (stereo not drawn) [Compound 14] the IC50 (NIH-3T3 [5]) was > 167 µM, the IC50 (B10A.4 [6]) was > 167 µM and the MDA (NIH3T3 fibroblasts) was 11.4 nmol/g FW. The IC50 [7] was > 167 µM and the IC50 (B10A.4 [8]) was > 167 µM.
For `Cc1ccc(CNc2nc(N(C)C)nc3c2ncn3C2CCCO2)o1` (stereo not drawn) [Compound 46, 2-(Dimethylamino)-6-[(5-methylfurfuryl)amino]-9-(tetrahydrofuran-2-yl)-9H-purine], the IC50 at 72 h [9] was > 167 µM, the “ORAC (compound/trolox)” value [10] was 0.14 ± 0.004 and the MDA (NIH3T3 fibroblasts) was 11.2 nmol/g FW. For the same compound, the IC50 at 72 h [11] was > 167 µM and the IC50 at 72 h [12] was > 167 µM.
For `CNc1nc(NCc2occc2OC)c2ncn(C3CCCO3)c2n1` (stereo not drawn) [Compound 49], the IC50 (B10A.4 [1]) was > 167 µM, the IC50 [2] was > 167 µM and the IC50 (B10A.4 [3]) was > 167 µM. The MDA (NIH3T3 fibroblasts) was 12.3 nmol/g FW and the IC50 (NIH-3T3 [4]) was > 167 µM.
For `CN(C)CCNc1nc(NCc2ccco2)c2ncn(C3CCCCO3)c2n1` (stereo not drawn) [Compound 116, 2-{[2-(Dimethylamino)ethyl]amino}-6-furfurylamino-9-(tetrahydro-2H-pyran-2-yl)-9H-purine], the IC50 at 72 h [9] was > 167 µM, the “ORAC (compound/trolox)” value [10] was 2.475 ± 0.086 and the MDA (NIH3T3 fibroblasts) was 9.2 nmol/g FW. For the same compound, the IC50 at 72 h [11] was > 167 µM and the IC50 at 72 h [12] was > 167 µM.
With `c1coc(CNc2ncnc3nc[nH]c23)c1` [Kinetin, N^6-furfuryladenine, reference compound] the IC50 (NIH-3T3 [5]) was 133 µM, the IC50 (B10A.4 [6]) was 164 µM and the MDA (NIH3T3 fibroblasts) was 14.2 nmol/g FW. For the same compound, the IC50 [7] was 148 µM and the IC50 (B10A.4 [8]) was > 167 µM.
In the case of `CC(C)=CCNc1ncnc2nc[nH]c12` [isopentenyladenine, reference compound], the IC50 (B10A.4 [1]) is reported as 147 µM, the IC50 [2] is reported as 134 µM and the IC50 (B10A.4 [3]) is reported as > 167 µM. It also gave an IC50 (NIH-3T3 [4]) of 124 µM.
With `Oc1cccc(CNc2ncnc3nc[nH]c23)c1` [meta-topolin, reference compound] the IC50 (B10A.4 [1]) was ≥ 178 µM, the IC50 [2] was 166 µM and the IC50 (B10A.4 [3]) was > 167 µM. The IC50 (NIH-3T3 [4]) was ≥ 167 µM.
